In US20180055055A1, “FOLIAR APPLICATIONS FOR CONTROLLING LEPIDOPTERAN PESTS FOR FRUITS AND/OR FRUIT TREES” (priority 2016, published 2018):

Test system: Grapholyta molesta
Assay: Open field trial, foliar application on peach trees against Grapholyta molesta
Type: in vivo
Details: timing ABC; for Alive larvae per 100 fruit / Deep holes per 100 fruit: 12 days after final application; for % control on alive larvae / % control on deep holes: Abbott equation
Excerpt: Another open field trial is set up to evaluate the efficacy and selectivity of Compound A against Grapholyta molesta for peach trees (Amiga variety). The trial is designed as randomized complete block with four replications. Compound A is applied only twice (Timing A, and B), while all other treatments are applied three times (Timing A, B and C) where each application is about one week apart.
Treatments are sprayed using a mist spray multi plot equipment, designed for efficacy trials with four independent series of 8 nozzles (ALBUZ, ATR 80 Yellow) and calibrated to apply a spray volume of 1200 L/ha at a pressure of 450 Kpa. The applications target the egg lay stage of second generation at the crop growth stage of BBCH 73-75, 75-76 and 76-77 respectively for timing A, B and C. At twelve days after the final application, the efficacy assessment is carried out on 100 fruits/plot assessing the number of damaged fruits (distinct as superficial stings and deep holes) and the number of alive larvae.
Results are shown in Table 3, where data assessed are also transformed to a percentage of control using Abbott equation. Data are examined according to the Bartlett's test for homogeneity of variance. The treatment means of the assessment data are calculated and compared using Tukey's HSD test (p=0.05). In the untreated there are 18 alive larvae found in 100 fruits/plot, which represented a high infestation situation

[1] = 680 g ai/ha, first listed formulation (Table 3 order: (1) CS 200 g ai/L)
[2] = 680 g ai/ha, second listed formulation (Table 3 order: (2) EC 225 g ai/L)
[3] = 850 ai/ha, second listed formulation (Table 3 order: (2) EC 225 g ai/L)
[4] = 850 g ai/ha, first listed formulation (Table 3 order: (1) CS 200 g ai/L)
[5] = 1020 g ai/ha, first listed formulation (Table 3 order: (1) CS 200 g ai/L)
[6] = 1020 g ai/ha, second listed formulation (Table 3 order: (2) EC 225 g ai/L)

CCOP(=S)(OCC)Oc1nc(Cl)c(Cl)cc1Cl [Chlorpyriphos-Ethyl]
Alive larvae per 100 fruit (1080 g ai/ha, EC 480 g ai/L): 0.0 b per 100 fruit | Deep holes per 100 fruit (1080 g ai/ha, EC 480 g ai/L): 0 b per 100 fruit | % control on alive larvae (1080 g ai/ha, EC 480 g ai/L): 100.0 a % | % control on deep holes (1080 g ai/ha, EC 480 g ai/L): 100.0 a %

COP(=S)(OC)Oc1nc(Cl)c(Cl)cc1Cl [Chlorpyriphos-Methyl]
Alive larvae per 100 fruit [1]: 0.0 b per 100 fruit | Deep holes per 100 fruit [1]: 3 b per 100 fruit | Alive larvae per 100 fruit [2]: 0.0 b per 100 fruit | Deep holes per 100 fruit [2]: 3 b per 100 fruit | % control on alive larvae [1]: 100.0 a % | % control on deep holes [1]: 81.3 c % | % control on alive larvae [2]: 100.0 a % | % control on deep holes [2]: 85.8 bc % | Alive larvae per 100 fruit [3]: 0.0 b per 100 fruit | Deep holes per 100 fruit [3]: 2 b per 100 fruit | % control on alive larvae [3]: 100.0 a % | % control on deep holes [3]: 93.0 bc % | Alive larvae per 100 fruit [4]: 0.0 b per 100 fruit | Deep holes per 100 fruit [4]: 2 b per 100 fruit | % control on alive larvae [4]: 100.0 a % | % control on deep holes [4]: 93.4 abc % | Alive larvae per 100 fruit [5]: 0.0 b per 100 fruit | Deep holes per 100 fruit [5]: 0 b per 100 fruit | Alive larvae per 100 fruit [6]: 0.0 b per 100 fruit | Deep holes per 100 fruit [6]: 0 b per 100 fruit | % control on alive larvae [5]: 100.0 a % | % control on deep holes [5]: 100.0 a % | % control on alive larvae [6]: 100.0 a % | % control on deep holes [6]: 100.0 a %
